We go through 54 compounds from patent publication US9073941B2, “Compounds and methods for treating tuberculosis infection” (Academia Sinica, priority 2010, dated 2015).

In this assay the target is lipoamide dehydrogenase (Lpd) (Mycobacterium tuberculosis (strain ATCC 25618 / H37Rv), UniProt P9WHH9). Nature of the assay: Lipoamide Dehydrogenase (Lpd) Inhibition Assay. Format: biochemical.
Setting [1] is: concentration required for 50% inhibition of LPD activity, DTNB detection, OD405 nm.

Read-outs that look alike come from different tables or passages of the source.

For the compound `CN(CC(=O)Nc1ccc(F)cc1)S(=O)(=O)c1cc(Br)cnc1N` [Compound 504], the IC50 (commonly the concentration that inhibits the measured activity by half) was 4300 ± 1210 nM.

`Cc1ccc(CNC(=O)CN(C)S(=O)(=O)c2cc(Br)cnc2N)cc1` [Compound 506]: the IC50 under setting [1] was 3310 ± 490 nM.

On to `CCOc1ccc2nc(NC(=O)C3CCN(S(=O)(=O)c4cn(CC)cn4)CC3)sc2c1` [Compound 562], for which, under setting [1], half-maximal inhibition (IC50) required 3500 ± 470 nM.

Under setting [1], `CC(C)n1cnc(S(=O)(=O)N2CCC(C(=O)Nc3ccc(F)c(Cl)c3)CC2)c1` [Compound 527] yielded an IC50 of 3130 ± 790 nM.

`CC(C)n1cnc(S(=O)(=O)N2CCC(C(=O)Nc3ccc(S(N)(=O)=O)cc3)CC2)c1` [Compound 513] returned an IC50 under setting [1] of 4120 ± 1810 nM.

Consider `CCc1cccc(NC(=O)C2CCN(S(=O)(=O)c3cn(C(C)C)cn3)CC2)c1` [Compound 511], for which the midpoint of inhibition under setting [1], the IC50, lay at 2550 ± 790 nM.

For the compound `CC(C)n1cnc(S(=O)(=O)N2CCC(C(=O)Nc3ccccc3F)CC2)c1` [Compound 524], the IC50 under setting [1] was 2670 ± 650 nM.

As to `Cc1ccc(NC(=O)C2CCN(S(=O)(=O)c3cn(C(C)C)cn3)CC2)cc1Cl` [Compound 533], it took 2640 ± 190 nM to reach half-maximal inhibition under setting [1] (IC50).

Compound `CC(C)n1cnc(S(=O)(=O)N2CCC(C(=O)Nc3ccc(Cl)cc3)CC2)c1` [Compound 522] returned an IC50 under setting [1] of 2940 ± 720 nM.

Compound `CCOc1ccc(NC(=O)C2CCN(S(=O)(=O)c3cn(CC)cn3)CC2)cc1` [Compound 543] displayed an IC50 of 3970 ± 1130 nM.

Under setting [1], `CCn1cnc(S(=O)(=O)N2CCC(C(=O)Nc3ccc(OC)c(Cl)c3)CC2)c1` [Compound 548] came in with an IC50 of 2350 ± 520 nM.

With `CCOc1ccc2cc(CNc3ccc(O)cc3)c(O)nc2c1` [Compound 802], under setting [1], half-maximal inhibition (IC50) was put at 3340 ± 260 nM.

With `COc1ccc(NC(=O)C2CCN(S(=O)(=O)c3cn(C(C)C)cn3)CC2)cc1` [Compound 521], the IC50 under setting [1] came out at 2310 ± 360 nM.

For the compound `CCn1cnc(S(=O)(=O)N2CCC(C(=O)Nc3nc4ccc(OC)cc4s3)CC2)c1` [Compound 563], the IC50 under setting [1] is 3020 ± 870 nM.

Under setting [1], `CCn1cnc(S(=O)(=O)N2CCC(C(=O)Nc3ccc4c(c3)OCCO4)CC2)c1` [Compound 545] registered an IC50 of 2690 ± 560 nM.

For the compound `CCOc1ccc2nc(NC(=O)C3CCN(S(=O)(=O)c4cn(C(C)C)cn4)CC3)sc2c1` [Compound 550], half-maximal inhibition under setting [1] (IC50) required 2130 ± 240 nM.

For `CCOc1ccccc1CNC(=O)C1CCN(S(=O)(=O)c2cn(C(C)C)cn2)CC1` [Compound 554], the IC50 under setting [1] came out at 3420 ± 880 nM.

The compound `Cc1cccc(NC(=O)C2CCN(S(=O)(=O)c3cn(C(C)C)cn3)CC2)c1` [Compound 508] yielded a 50% inhibitory concentration (IC50) under setting [1] of 2610 ± 820 nM.

`CCOc1ccc(NC(=O)C2CCN(S(=O)(=O)c3cn(C(C)C)cn3)CC2)cc1` [Compound 520] came in with an IC50 of 2170 ± 370 nM.

The compound `Cc1ccc(NC(=O)C2CCN(S(=O)(=O)c3cn(C(C)C)cn3)CC2)cc1C` [Compound 510] registered an IC50 under setting [1] of 2450 ± 210 nM.

As for `CC(C)n1cnc(S(=O)(=O)N2CCC(C(=O)Nc3cccc(-c4ccno4)c3)CC2)c1` [Compound 535], the IC50 under setting [1] was determined as 2120 ± 210 nM.

For `CCc1ccc(NC(=O)C2CCN(S(=O)(=O)c3cn(CC)cn3)CC2)cc1` [Compound 539], the IC50 is 4300 ± 1660 nM.

Consider `CC(C)n1cnc(S(=O)(=O)N2CCC(C(=O)Nc3ccccc3)CC2)c1` [Compound 507], for which the IC50 under setting [1] came out at 2770 ± 690 nM.

`Cc1cccc(CNC(=O)C2CCN(S(=O)(=O)c3cn(C(C)C)cn3)CC2)c1` [Compound 540]: it took 4180 ± 1090 nM to reach half-maximal inhibition (IC50).

`COc1ccc(NC(=O)CN(C)S(=O)(=O)c2cc(Br)cnc2N)cc1Cl` [Compound 503] displayed an IC50 of 700 ± 80 nM.

Under setting [1], `CN(C(=O)c1ccc(Cn2cccn2)o1)c1nc2c(s1)CCc1c-2cnn1C` [Compound 1105] returned an IC50 of 3640 ± 510 nM.

As for `CC(C)n1cnc(S(=O)(=O)N2CCC(C(=O)NCc3ccc(F)cc3)CC2)c1` [Compound 557], 3550 ± 1170 nM corresponded to half-maximal inhibition (IC50).

On to `CCn1cnc(S(=O)(=O)N2CCC(C(=O)Nc3cccc(-c4ccno4)c3)CC2)c1` [Compound 553], for which the IC50 under setting [1] is 2680 ± 990 nM.

On to `COc1ccc(CNC(=O)C2CCN(S(=O)(=O)c3cn(C(C)C)cn3)CC2)cc1` [Compound 558], for which inhibition under setting [1] was half-maximal at 3330 ± 800 nM (IC50).

Compound `Cc1cc(NC(=O)C2CCN(S(=O)(=O)c3cn(C(C)C)cn3)CC2)ccc1Br` [Compound 531] came in with an IC50 under setting [1] of 4110 ± 1590 nM.

In the case of `CC(C)Oc1ccc(CNC(=O)C2CCN(S(=O)(=O)c3cn(C(C)C)cn3)CC2)cc1` [Compound 560], the IC50 under setting [1] turned out to be 3860 ± 900 nM.

The compound `CCCN(C(=O)c1ccc(COC)o1)c1nc2c(s1)CCc1c-2cnn1C` [Compound 1102] came in with an IC50 under setting [1] of 3160 ± 430 nM.

As to `Cc1ccc(C)c(NC(=O)C2CCN(S(=O)(=O)c3cn(C(C)C)cn3)CC2)c1` [Compound 529], the IC50 under setting [1] came to 3920 ± 2470 nM.

Consider `CCOC(=O)c1ccc(NC(=O)C2CCN(S(=O)(=O)c3cn(C(C)C)cn3)CC2)cc1` [Compound 525], for which, under setting [1], the 50% inhibitory concentration (IC50) is 2440 ± 580 nM.

`CC(C)n1cnc(S(=O)(=O)N2CCC(C(=O)Nc3ccc(Br)cc3F)CC2)c1` [Compound 538] registered an IC50 under setting [1] of 2540 ± 570 nM.

Take `CCSc1nnc(NC(=O)C2CCN(S(=O)(=O)c3cn(CC)cn3)CC2)s1` [Compound 565]: under setting [1], the half-inhibitory concentration (IC50) was determined as 3060 ± 470 nM.

Under setting [1], `Cn1c(=O)nc2[nH]nc(/C=C/c3ccccc3)nc-2c1=O` [Compound 622] displayed an IC50 of 2160 ± 260 nM.

For the compound `CC(C)n1cnc(S(=O)(=O)N2CCC(C(=O)Nc3ccc4c(c3)OCO4)CC2)c1` [Compound 530], inhibition was half-maximal at 2070 ± 710 nM (IC50).

The compound `Oc1ccc(NCc2cc3ccccc3nc2O)cc1` [Compound 803] had an IC50 under setting [1] of 1620 ± 180 nM.

With `COc1ccc(CCNC(=O)C2CCN(S(=O)(=O)c3cn(C(C)C)cn3)CC2)cc1OC` [Compound 564], half-maximal inhibition under setting [1] (IC50) was put at 2220 ± 520 nM.

In turn, `CC(C)c1ccc(NC(=O)C2CCN(S(=O)(=O)c3cn(C(C)C)cn3)CC2)cc1` [Compound 509] came in with an IC50 of 2870 ± 520 nM.

Turning to `COC1CCCC(C(=O)N(CC2CCCO2)c2nc3c(s2)CCc2c-3cnn2C)C1` (stereo not drawn) [Compound 1107], under setting [1], the midpoint of inhibition, the IC50, lay at 3220 ± 500 nM.

Consider `Cc1ccc(NC(=O)C2CCN(S(=O)(=O)c3cn(C(C)C)cn3)CC2)cc1N(C)C` [Compound 526], for which the IC50 under setting [1] worked out at 2790 ± 720 nM.

Under setting [1], `CC(C)n1cnc(S(=O)(=O)N2CCC(C(=O)Nc3cccc(Cl)c3)CC2)c1` [Compound 518] had a half-inhibitory concentration (IC50) of 3830 ± 780 nM.

Turning to `CC(C)n1cnc(S(=O)(=O)N2CCC(C(=O)NCc3cccs3)CC2)c1` [Compound 549], the half-inhibitory concentration (IC50) was found to be 3420 ± 1330 nM.

In turn, `CC(C)c1ccc(NC(=O)CN(C)S(=O)(=O)c2cc(Br)cnc2N)cc1` [Compound 505] gave a half-maximal inhibitory concentration (IC50) under setting [1] of 840 ± 110 nM.

Turning to `COc1ccc2nc(NC(=O)C3CCN(S(=O)(=O)c4cn(C(C)C)cn4)CC3)sc2c1` [Compound 551], the IC50 under setting [1] amounted to 2280 ± 110 nM.

In turn, `CC(C)n1cnc(S(=O)(=O)N2CCC(C(=O)NCCCc3ccccc3)CC2)c1` [Compound 547] registered an IC50 under setting [1] of 2670 ± 600 nM.

Take `COc1cc(Cl)c(NC(=O)C2CCN(S(=O)(=O)c3cn(C(C)C)cn3)CC2)c(OC)c1` [Compound 552]: half-maximal inhibition (IC50) was put at 2870 ± 670 nM.

For `COc1ccc(NC(=O)C2CCN(S(=O)(=O)c3cn(C(C)C)cn3)CC2)c(OC)c1` [Compound 537], the midpoint of inhibition under setting [1], the IC50, lay at 3400 ± 1600 nM.

Regarding `COCCN(C(=O)c1nsc(Cl)c1Cl)c1nc2c(s1)CCc1c-2cnn1C` [Compound 1104], under setting [1], the midpoint of inhibition, the IC50, lay at 2240 ± 260 nM.

Regarding `CCn1cnc(S(=O)(=O)N2CCC(C(=O)NCCc3nc4cc(C)ccc4[nH]3)CC2)c1` [Compound 566], the IC50 under setting [1] worked out at 3910 ± 790 nM.

Under setting [1], `CC(C)n1cnc(S(=O)(=O)N2CCC(C(=O)Nc3cccc(Br)c3)CC2)c1` [Compound 519] gave an IC50 of 2760 ± 590 nM.

On to `CC(C)n1cnc(S(=O)(=O)N2CCC(C(=O)NCc3ccc(Br)cc3)CC2)c1` [Compound 555], for which the IC50 under setting [1] was found to be 3200 ± 1050 nM.
